According to patent US20260256789A1, “METHODS FOR TREATMENT OF CANCER” (Frontier Medicines Corporation, priority 2022, published 2026):

Molecular target: T1, KRAS G12C (GMPPNP-loaded) and cRAF Ras-binding domain (Homo sapiens, UniProt P01116, C118S/C51S/C80L/G12C)
T1 construct: truncated version comprising amino acids 1-169
Test: Inhibition of KRAS G12C and cRAF binding (AlphaScreen)
Conditions: KRAS G12C preloaded with GTP analogue GMPPNP, 2 hours preincubation
How it was run: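 AlphaScreen used biotin-AviTag KRAS G12C (Cys-light, aa 1-169; 0.5 nM), GMPPNP-loaded, preincubated 2 h with compound (top 50 μM, 1:3, 10 points, 2% DMSO) in pH 7.4 Hepes buffer with 10 μM GMPPNP. GST-cRAF RBD (aa 50-131; 0.75 nM) plus beads were then added for 60-90 min at room temperature, and IC50 came from a 4-parameter fit.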

T1 sequence (P01116 1-169 isoform P01116-2 G12C/C51S/C80L/C118S): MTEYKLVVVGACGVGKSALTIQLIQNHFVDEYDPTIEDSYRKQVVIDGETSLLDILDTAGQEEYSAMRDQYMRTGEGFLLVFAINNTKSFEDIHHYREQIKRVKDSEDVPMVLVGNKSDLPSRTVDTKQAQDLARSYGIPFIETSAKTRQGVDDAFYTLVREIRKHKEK

Question: Which IC50 does the source give for `Cc1cc(N)nc(-c2ncc3c(N(C)[C@@H]4CCN(C(=O)C#CCN(C)C)C4)nc(OC[C@@]45CCCN4C[C@H](F)C5)nc3c2F)c1C(F)(F)F` [Example 159] here?
Answer: < 10 nM

Question: `C=CC(=O)N1CC[C@H](O)[C@@H](N(C)c2nc(OC[C@@]34CCCN3C[C@H](F)C4)nc3c(F)c(-c4cccc(Cl)c4C(F)(F)F)ncc23)C1` [Example 205] was tested. Which IC50 did it give?
Answer: ≥ 500 nM

Question: How did the IC50 turn out when `C=CC(=O)N1CC[C@@H](N(C)c2nc(OC[C@@]34CCCN3C[C@H](F)C4)nc3c(F)c(-c4cc(O)cc5nccnc45)ncc23)C1` [Example 192] was run?
Answer: 100 to 500 nM

Question: Which IC50 does the source give for `Cc1nccc(/C=C/C(=O)N2CC[C@@H](N(C)c3nc(OC[C@@]45CCCN4C[C@H](F)C5)nc4c(F)c(-c5cc(O)cc(Cl)c5C5CC5)ncc34)C2)n1` [Example 254] here?
Answer: < 10 nM

Question: For `C=CC(=O)N1CC(CN(C)c2nc(OC[C@@]34CCCN3C[C@H](F)C4)nc3c(F)c(-c4nc(N)cc(C)c4C)ncc23)C1` [Example 146, 1-(3-(((7-(6-amino-3,4-dimethylpyridin-2-yl)-8-fluoro-2-(((2R,7aS)-2-fluorotetrahydro-1H-pyrrolizin-7a(5H)-yl)methoxy)pyrido[4,3-d]pyrimidin-4-yl)(methyl)amino)methyl)azetidin-1-yl)prop-2-en-1-one], which IC50 is on record?
Answer: ≥ 500 nM

Question: For `C=CC(=O)N1CC[C@@H](N(C)c2nc(OCC34CCCN3CCC4)nc3c2C[C@H](C)[C@@H](c2nc(N)cc(C)c2C(F)(F)F)C3)C1` [Example 148, 1-((R)-3-(((6S,7S)-7-(6-amino-4-methyl-3-(trifluoromethyl)pyridin-2-yl)-6-methyl-2-((tetrahydro-1H-pyrrolizin-7a(5H)-yl)methoxy)-5,6,7,8-tetrahydroquinazolin-4-yl)(methyl)amino)pyrrolidin-1-yl)prop-2-en-1-one], which IC50 is on record?
Answer: 100 to 500 nM

Question: `Cc1cc(N)nc(-c2ncc3c(N(C)[C@@H]4CCN(C(=O)/C=C/c5nc(C(C)C)no5)C4)nc(OC[C@@]45CCCN4C[C@H](F)C5)nc3c2F)c1C1CC1` [Example 170] was tested. Which IC50 did it give?
Answer: 10 to 100 nM

Question: `CN(C)CC#CC(=O)N1CC[C@@H](N(C)c2nc(OC[C@@]34CCCN3C[C@H](F)C4)nc3c(F)c(-c4nc(N)cc5cccc(Cl)c45)ncc23)C1` [Example 38, 1-((R)-3-((7-(3-amino-8-chloroisoquinolin-1-yl)-8-fluoro-2-(((2R,7aS)-2-fluorohexahydro-1H-pyrrolizin-7a-yl)methoxy)pyrido[4,3-d]pyrimidin-4-yl)(methyl)amino)pyrrolidin-1-yl)-4-(dimethylamino)but-2-yn-1-one] was tested. Which IC50 did it give?
Answer: < 10 nM

Question: How did the IC50 turn out when `C=CC(=O)N1CC[C@@H](N(C)c2nc(OC[C@@]34CCCN3C[C@H](F)C4)nc3c(F)c(-c4cn[nH]c4C4CC4)ncc23)C1` [Example 179] was run?
Answer: ≥ 500 nM

Question: For `Cc1cc(N)nc([C@@H]2Cc3nc(OC[C@@]45CCCN4C[C@H](F)C5)nc(N(C)CC4CN(C(=O)/C=C/c5nc(C(C)(C)O)no5)C4)c3C[C@H]2C)c1C(F)(F)F` (single isomer, unassigned) [Example 162], which IC50 is on record?
Answer: 10 to 100 nM

Question: `C=CC(=O)N1CC[C@@H](N(C)c2nc(OC[C@@]34CCCN3C[C@H](F)C4)nc3c(F)c(-c4cccc(OC)c4C4CC4)ncc23)C1` [Example 189] was tested. Which IC50 did it give?
Answer: ≥ 500 nM

Question: `CN(c1nc(OC[C@@]23CCCN2C[C@H](F)C3)nc2c(F)c(-c3cccc(Cl)c3C3CC3)ncc12)[C@@H]1CCN(C(=O)C#CCN2CC3CCC(C2)O3)C1` [Example 257] was tested. Which IC50 did it give?
Answer: 10 to 100 nM

Question: Which IC50 does the source give for `C=CC(=O)N1CC[C@@H](N(C)c2nc(OC[C@@]34CCCN3C[C@H](F)C4)nc3c(F)c(-c4cc(O)ccc4C4CC4)ncc23)C1` [Example 31, 1-((R)-3-((7-(2-cyclopropyl-5-hydroxyphenyl)-8-fluoro-2-(((2R,7aS)-2-fluorotetrahydro-1H-pyrrolizin-7a(5H)-yl)methoxy)pyrido[4,3-d]pyrimidin-4-yl)(methyl)amino)pyrrolidin-1-yl)prop-2-en-1-one] here?
Answer: 10 to 100 nM

Question: Which IC50 does the source give for `CN(c1nc(OCC23CCCN2CCC3)nc2c(F)c(-c3nc(N)cc4cccc(Cl)c34)ncc12)[C@@H]1CCN(C#N)C1` [Example 66, (R)-3-((7-(3-amino-8-chloroisoquinolin-1-yl)-8-fluoro-2-((hexahydro-1H-pyrrolizin-7a-yl)methoxy)pyrido[4,3-d]pyrimidin-4-yl)(methyl)amino)pyrrolidine-1-carbonitrile] here?
Answer: 10 to 100 nM

Question: For `C=CC(=O)N1CC[C@@H](N(C)C2=c3cnc(-c4c[nH]nc4Cl)c(F)c3=NC(OC[C@@]34CCCN3C[C@H](F)C4)N2)C1` (stereo partly shown) [Example 225], which IC50 is on record?
Answer: ≥ 500 nM

Question: `CN(c1nc(OCC23CCCN2CCC3)nc2c(F)c(-c3nc(N)cc4cccc(F)c34)ncc12)[C@@H]1CCN(C#N)C1` [Example 70, (R)-3-((7-(3-amino-8-fluoroisoquinolin-1-yl)-8-fluoro-2-((hexahydro-1H-pyrrolizin-7a-yl)methoxy)pyrido[4,3-d]pyrimidin-4-yl)(methyl)amino)pyrrolidine-1-carbonitrile] was tested. Which IC50 did it give?
Answer: 100 to 500 nM

Question: How did the IC50 turn out when `Cc1cc(N)nc(-c2ncc3c(N(C)[C@@H]4CCN(C(=O)C#CCN5CCOCC5)C4)nc(OC[C@@]45CCCN4C[C@H](F)C5)nc3c2F)c1C(F)(F)F` [Example 101] was run?
Answer: 10 to 100 nM

Question: Which IC50 does the source give for `C=CC(=O)N1CC[C@@H](N(C)c2nc(OC[C@@]34CCCN3C[C@H](F)C4)nc3c(F)c(-c4cc(O)cc(Cl)c4C(F)(F)F)ncc23)C1` [Example 248] here?
Answer: < 10 nM

Question: Which IC50 does the source give for `CN(c1nc(OC[C@@]23CCCN2C[C@H](F)C3)nc2c(F)c(-c3cccc(Cl)c3C3CC3)ncc12)[C@@H]1CCN(C(=O)/C=C/CN2C[C@H]3C[C@@H]2CO3)C1` [Example 245] here?
Answer: 10 to 100 nM

Question: For `CN(c1nc(OC[C@@]23CCCN2C[C@H](F)C3)nc2c(F)c(-c3cccc(Cl)c3C3CC3)ncc12)[C@@H]1CCN(C(=O)C#C[C@@]2(C)CCCN2)C1` [Example 215], which IC50 is on record?
Answer: < 10 nM

Question: For `CN(C)C/C=C/C(=O)N1CC[C@@H](N(C)c2nc(OC[C@@]34CCCN3C[C@H](F)C4)nc3c(F)c(-c4cccc(Cl)c4C4CC4)ncc23)C1` [Example 184], which IC50 is on record?
Answer: 10 to 100 nM

Question: For `C=CC(=O)N1CC[C@@H](N(C)c2nc(OC[C@@]34CCCN3C[C@H](F)C4)nc3c(F)c(-c4cncc(Cl)c4C4CC4)ncc23)C1` [Example 240], which IC50 is on record?
Answer: ≥ 500 nM

Question: For `CN(C)CC#CC(=O)N1CC[C@@H](N(C)c2nc(OC[C@@]34CCCN3C[C@H](F)C4)nc3c(F)c(-c4nc(N)cc5cccc(Cl)c45)ncc23)C1` [Example 91], which IC50 is on record?
Answer: 10 to 100 nM

Question: How did the IC50 turn out when `CN(c1nc(OC[C@@]23CCCN2C[C@H](F)C3)nc2c(F)c(-c3cccc(Cl)c3C3CC3)ncc12)[C@@H]1CCN(C(=O)/C=C/CN2CC[C@H](F)C2)C1` [Example 238] was run?
Answer: 10 to 100 nM

Question: For `Cc1cc(N)nc(-c2ncc3c(N(C)CC4CN(C(=O)/C=C/CN5CCOCC5)C4)nc(OC[C@@]45CCCN4C[C@H](F)C5)nc3c2F)c1C(F)(F)F` [Example 129], which IC50 is on record?
Answer: 100 to 500 nM

Question: With `C=CC(=O)N1CC[C@@H](N(C)c2nc(OC[C@@]34CCCN3C[C@H](F)C4)nc3c(F)c(-c4nc(N)cc5cccc(Cl)c45)ncc23)C1` [Example 74, 1-((R)-3-((7-(3-amino-8-chloroisoquinolin-1-yl)-8-fluoro-2-(((2R,7aS)-2-fluorohexahydro-1H-pyrrolizin-7a-yl)methoxy)pyrido[4,3-d]pyrimidin-4-yl)(methyl)amino)pyrrolidin-1-yl)prop-2-en-1-one] as the compound, how does the IC50 read?
Answer: 10 to 100 nM

Question: For `Cc1noc(/C=C/C(=O)N2CC[C@@H](N(C)c3nc(OC[C@@]45CCCN4C[C@H](F)C5)nc4c(F)c(-c5nc(N)ccc5C(F)(F)F)ncc34)C2)n1` [Example 48, (E)-1-((R)-3-((7-(6-amino-3-(trifluoromethyl)pyridin-2-yl)-8-fluoro-2-(((2R,7aS)-2-fluorotetrahydro-1H-pyrrolizin-7a(5H)-yl)methoxy)pyrido[4,3-d]pyrimidin-4-yl)(methyl)amino)pyrrolidin-1-yl)-3-(3-methyl-1,2,4-oxadiazol-5-yl)prop-2-en-1-one], which IC50 is on record?
Answer: 10 to 100 nM

Question: How did the IC50 turn out when `Cc1cc(N)nc(-c2ncc3c(N(C)CC4CN(C(=O)/C=C/c5nc(C(C)C)no5)C4)nc(OC[C@@]45CCCN4C[C@H](F)C5)nc3c2F)c1C(F)(F)F` [Example 154] was run?
Answer: 10 to 100 nM

Question: How did the IC50 turn out when `Cc1ncc(F)c(/C=C/C(=O)N2CC[C@@H](N(C)c3nc(OC[C@@]45CCCN4C[C@H](F)C5)nc4c(F)c(-c5cccc(Cl)c5C5CC5)ncc34)C2)n1` [Example 258] was run?
Answer: 100 to 500 nM

Question: `Cc1noc(/C=C/C(=O)N2CC[C@@H](N(C)c3nc(OCC45CCCN4CCC5)nc4c3CC(C)C(c3nc(N)cc(C)c3C(F)(F)F)C4)C2)n1` (stereo partly shown) [Example 143] was tested. Which IC50 did it give?
Answer: < 10 nM

Question: How did the IC50 turn out when `C=CC(=O)N1CC[C@@H](N(C)c2nc(OCC34CCCN3CCC4)nc3c(F)c(-c4nc(N)cc(C)c4C(F)(F)F)ncc23)C1` [Example 79, (R)-1-(3-((7-(6-amino-4-methyl-3-(trifluoromethyl)pyridin-2-yl)-8-fluoro-2-((tetrahydro-1H-pyrrolizin-7a(5H)-yl)methoxy)pyrido[4,3-d]pyrimidin-4-yl)(methyl)amino)pyrrolidin-1-yl)prop-2-en-1-one] was run?
Answer: 10 to 100 nM

Question: For `CN(CC1CN(C(=O)/C=C/c2nc(C(C)(C)O)no2)C1)c1nc(OC[C@@]23CCCN2C[C@H](F)C3)nc2c(F)c(-c3nc(N)cc4cccc(Cl)c34)ncc12` [Example 151], which IC50 is on record?
Answer: < 10 nM

Question: For `Cc1noc(/C=C/C(=O)N2CC[C@@H](N(C)c3nc(OC[C@@]45CCCN4C[C@H](F)C5)nc4c3C[C@@H](C)[C@H](c3nc(N)cc(C)c3C(F)(F)F)C4)C2)n1` [Example 136], which IC50 is on record?
Answer: < 10 nM

Question: `C=CC(=O)N1CC(CN(C)c2nc(OC[C@@]34CCCN3C[C@H](F)C4)nc3c(F)c(-c4nc(N)cc5cccc(Cl)c45)ncc23)C1` [Example 73, 1-(3-(((7-(3-amino-8-chloroisoquinolin-1-yl)-8-fluoro-2-(((2R,7aS)-2-fluorohexahydro-1H-pyrrolizin-7a-yl)methoxy)pyrido[4,3-d]pyrimidin-4-yl)(methyl)amino)methyl)azetidin-1-yl)prop-2-en-1-one] was tested. Which IC50 did it give?
Answer: 10 to 100 nM
